The values below are quoted from earlier work in patent publication US6548645B1, “Immunoassay for 2-oxo-3-hydroxy LSD” (Microgenetics Corporation, priority 1999, dated 2003).

Series [1] relates to antibodies generated by LSD immunogens (LSD analogs derivatized through N-1 or N-6 conjugated to a carrier). To be noted: molar ratio; relative to LSD; antibodies of Salamone et al., Bioconjugate Chem 8:896-905 (1997).
The conditions of series [2]: doses as low as.
The conditions of series [3]: man; calculated.

For the compound `CCN(CC)C(=O)C1C=C2c3cccc4c3C(O)(CC2N(C)C1)C(=O)N4` (stereo not drawn) [2PATENT -oxo-3-hydroxy-LSD, 2-oxo-3-hydroxy-LSD], in series [1], the cross-reactivity was 30-45%.

On to `CCN(CC)C(=O)[C@@H]1C=C2c3cccc4[nH]cc(c34)C[C@H]2N(C)C1` [LSD], for which the “oral dose causing central nervous system disturbances (hallucinations, distortions in sensory perception, mood changes)” value in series [2] was at least 25 µg. In addition, the plasma half-life result in series [3] is “about 3 hours”.
